# Laboratory results taken from PMC12136037, “Type II kinase inhibitors that target Parkinson’s disease–associated LRRK2” (Science Advances, 2025).
# Read-outs that look alike come from different tables or passages of the source.
# Tests used:
# Assay in all cases: DSF 100 kinase selectivity screen;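 further: compound tested at 20 µM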
# Type in all cases: binding
# [1] = molecular target: T1, ~100 representative kinases (Homo sapiens, UniProt Q09013); conditions: Protein DMPK1; average of three replicates
# T1 construct: Recombinant protein kinase domains with a concentration of 2 μM
# T1 sequence (Q09013 1-629): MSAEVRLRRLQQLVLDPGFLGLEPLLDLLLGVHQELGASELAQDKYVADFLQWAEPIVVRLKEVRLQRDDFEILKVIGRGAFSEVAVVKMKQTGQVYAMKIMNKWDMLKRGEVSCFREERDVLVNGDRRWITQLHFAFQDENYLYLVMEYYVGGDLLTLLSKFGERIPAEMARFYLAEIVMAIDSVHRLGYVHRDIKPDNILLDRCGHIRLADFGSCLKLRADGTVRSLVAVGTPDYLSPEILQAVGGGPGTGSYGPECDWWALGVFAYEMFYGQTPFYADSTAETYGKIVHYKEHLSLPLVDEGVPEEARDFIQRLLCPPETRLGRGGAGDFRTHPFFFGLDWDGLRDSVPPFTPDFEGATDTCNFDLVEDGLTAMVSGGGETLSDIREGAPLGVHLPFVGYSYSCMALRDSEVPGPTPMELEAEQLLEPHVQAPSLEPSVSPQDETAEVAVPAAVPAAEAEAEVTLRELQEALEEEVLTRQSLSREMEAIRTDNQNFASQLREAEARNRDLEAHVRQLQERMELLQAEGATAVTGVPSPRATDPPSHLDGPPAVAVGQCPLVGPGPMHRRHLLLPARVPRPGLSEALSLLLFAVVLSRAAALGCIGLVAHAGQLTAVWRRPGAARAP
# Experimental: (§1) Recombinant protein kinase domains with a concentration of 2 μM were mixed with a 20 μM compound solution in dimethyl sulfoxide (DMSO), 20 mM Hepes (pH 7.5), and 500 mM NaCl. SYPRO Orange (5000×, Invitrogen) was added as a fluorescence probe (1μl/ml). Subsequently, temperature-dependent protein unfolding profiles were measured using the QuantStudio 5 realtime PCR machine (Thermo Fisher Scientific, Waltham, MA, USA). […] The temperature was raised with a step rate of 3°C/min. […] Differences in melting temperature are given as ΔTm values in degrees Celsius. […]
# [2] = molecular target: T2, ~100 representative kinases (Homo sapiens, UniProt Q96NX5); conditions: Protein CAMK1G; average of three replicates
# T2 construct: Recombinant protein kinase domains with a concentration of 2 μM
# Experimental: as §1
# [3] = molecular target: T3, ~100 representative kinases (Homo sapiens, UniProt P55201); conditions: Protein BRPF1; average of three replicates
# T3 construct: Recombinant protein kinase domains with a concentration of 2 μM
# T3 sequence (P55201 1-1214): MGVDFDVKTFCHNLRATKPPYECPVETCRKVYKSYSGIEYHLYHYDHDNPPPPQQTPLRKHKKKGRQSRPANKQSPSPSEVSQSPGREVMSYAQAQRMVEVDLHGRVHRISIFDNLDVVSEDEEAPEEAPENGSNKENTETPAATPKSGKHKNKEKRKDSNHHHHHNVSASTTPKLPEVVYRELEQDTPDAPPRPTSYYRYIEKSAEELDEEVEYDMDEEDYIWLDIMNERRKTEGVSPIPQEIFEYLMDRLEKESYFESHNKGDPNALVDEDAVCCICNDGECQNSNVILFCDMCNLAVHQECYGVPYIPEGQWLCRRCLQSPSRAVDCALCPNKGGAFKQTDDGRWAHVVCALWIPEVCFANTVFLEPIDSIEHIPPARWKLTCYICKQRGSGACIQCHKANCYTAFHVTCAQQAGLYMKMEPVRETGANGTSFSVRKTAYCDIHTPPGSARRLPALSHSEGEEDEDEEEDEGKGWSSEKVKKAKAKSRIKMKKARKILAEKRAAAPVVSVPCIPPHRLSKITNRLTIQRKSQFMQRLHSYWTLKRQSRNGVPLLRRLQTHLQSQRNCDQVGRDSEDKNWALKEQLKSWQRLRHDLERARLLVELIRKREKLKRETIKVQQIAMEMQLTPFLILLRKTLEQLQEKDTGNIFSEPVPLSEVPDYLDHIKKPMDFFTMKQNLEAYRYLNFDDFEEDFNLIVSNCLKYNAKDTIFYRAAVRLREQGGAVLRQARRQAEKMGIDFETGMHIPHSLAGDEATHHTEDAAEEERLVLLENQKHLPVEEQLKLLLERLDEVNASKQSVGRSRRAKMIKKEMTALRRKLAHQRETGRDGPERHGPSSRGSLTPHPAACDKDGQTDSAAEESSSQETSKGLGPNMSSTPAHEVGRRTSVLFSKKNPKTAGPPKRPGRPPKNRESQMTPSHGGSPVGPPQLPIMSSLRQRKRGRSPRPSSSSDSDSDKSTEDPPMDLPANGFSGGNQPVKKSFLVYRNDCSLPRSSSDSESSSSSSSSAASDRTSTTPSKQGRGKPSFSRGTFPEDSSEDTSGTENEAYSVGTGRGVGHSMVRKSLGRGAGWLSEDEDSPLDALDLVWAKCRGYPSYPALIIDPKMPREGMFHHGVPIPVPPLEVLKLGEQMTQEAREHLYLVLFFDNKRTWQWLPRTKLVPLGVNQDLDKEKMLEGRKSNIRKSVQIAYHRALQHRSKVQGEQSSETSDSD
# Experimental: as §1
# [4] = molecular target: T4, ~100 representative kinases (Homo sapiens, UniProt Q00536)
# T4 construct: Recombinant protein kinase domains with a concentration of 2 μM
# Experimental: as §1
# [5] = molecular target: T5, ~100 representative kinases (Homo sapiens, UniProt Q2M2I8); conditions: Protein AAK1; average of three replicates
# T5 construct: Recombinant protein kinase domains with a concentration of 2 μM
# Experimental: as §1
# [6] = molecular target: T6, ~100 representative kinases (Homo sapiens, UniProt Q9NSY1); conditions: Protein BMP2K; average of three replicates
# T6 construct: Recombinant protein kinase domains with a concentration of 2 μM
# Experimental: as §1
# [7] = molecular target: T7, ~100 representative kinases (Homo sapiens, UniProt Q00532); conditions: Protein CDKL1; average of three replicates
# T7 construct: Recombinant protein kinase domains with a concentration of 2 μM
# Experimental: as §1
# [8] = molecular target: T8, ~100 representative kinases (Homo sapiens, UniProt P34947); conditions: protein GPRK5; average of three replicates
# T8 construct: Recombinant protein kinase domains with a concentration of 2 μM
# Experimental: as §1
# [9] = molecular target: T9, ~100 representative kinases (Homo sapiens, UniProt P54756); conditions: Protein EPHA5; average of three replicates
# T9 construct: Recombinant protein kinase domains with a concentration of 2 μM
# Experimental: as §1
# [10] = molecular target: T10, ~100 representative kinases (Homo sapiens, UniProt Q9Y243); conditions: Protein AKT3; average of three replicates
# T10 construct: Recombinant protein kinase domains with a concentration of 2 μM
# Experimental: as §1
# [11] = protein PCTK1, average of three replicates
# T7 sequence (Q00532 whole entry, the tested form may be a part): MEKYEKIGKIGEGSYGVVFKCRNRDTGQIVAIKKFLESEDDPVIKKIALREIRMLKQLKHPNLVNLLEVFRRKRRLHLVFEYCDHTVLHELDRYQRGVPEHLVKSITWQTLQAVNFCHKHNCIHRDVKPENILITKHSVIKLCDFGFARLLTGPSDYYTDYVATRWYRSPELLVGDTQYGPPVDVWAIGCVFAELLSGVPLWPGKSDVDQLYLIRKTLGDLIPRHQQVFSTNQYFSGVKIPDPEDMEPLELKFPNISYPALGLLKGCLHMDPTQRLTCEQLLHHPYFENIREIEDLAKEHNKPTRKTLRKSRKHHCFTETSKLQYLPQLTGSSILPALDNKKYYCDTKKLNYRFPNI
# T8 sequence (P34947 whole entry, the tested form may be a part): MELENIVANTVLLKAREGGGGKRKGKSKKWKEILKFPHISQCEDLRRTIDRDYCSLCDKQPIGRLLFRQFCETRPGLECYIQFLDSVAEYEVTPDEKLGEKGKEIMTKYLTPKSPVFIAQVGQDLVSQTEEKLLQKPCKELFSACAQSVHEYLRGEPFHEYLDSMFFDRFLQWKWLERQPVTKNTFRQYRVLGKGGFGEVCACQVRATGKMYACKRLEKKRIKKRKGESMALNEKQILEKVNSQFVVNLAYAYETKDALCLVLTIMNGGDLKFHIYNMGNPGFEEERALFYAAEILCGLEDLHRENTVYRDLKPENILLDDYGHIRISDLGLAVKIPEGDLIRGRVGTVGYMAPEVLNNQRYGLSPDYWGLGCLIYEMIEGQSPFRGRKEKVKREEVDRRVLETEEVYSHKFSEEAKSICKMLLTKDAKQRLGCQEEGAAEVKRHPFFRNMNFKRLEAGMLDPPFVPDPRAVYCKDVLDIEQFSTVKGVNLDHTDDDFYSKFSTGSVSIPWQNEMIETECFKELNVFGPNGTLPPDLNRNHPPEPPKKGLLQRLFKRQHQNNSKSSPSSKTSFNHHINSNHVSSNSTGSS
# T6 sequence (Q9NSY1 whole entry, the tested form may be a part): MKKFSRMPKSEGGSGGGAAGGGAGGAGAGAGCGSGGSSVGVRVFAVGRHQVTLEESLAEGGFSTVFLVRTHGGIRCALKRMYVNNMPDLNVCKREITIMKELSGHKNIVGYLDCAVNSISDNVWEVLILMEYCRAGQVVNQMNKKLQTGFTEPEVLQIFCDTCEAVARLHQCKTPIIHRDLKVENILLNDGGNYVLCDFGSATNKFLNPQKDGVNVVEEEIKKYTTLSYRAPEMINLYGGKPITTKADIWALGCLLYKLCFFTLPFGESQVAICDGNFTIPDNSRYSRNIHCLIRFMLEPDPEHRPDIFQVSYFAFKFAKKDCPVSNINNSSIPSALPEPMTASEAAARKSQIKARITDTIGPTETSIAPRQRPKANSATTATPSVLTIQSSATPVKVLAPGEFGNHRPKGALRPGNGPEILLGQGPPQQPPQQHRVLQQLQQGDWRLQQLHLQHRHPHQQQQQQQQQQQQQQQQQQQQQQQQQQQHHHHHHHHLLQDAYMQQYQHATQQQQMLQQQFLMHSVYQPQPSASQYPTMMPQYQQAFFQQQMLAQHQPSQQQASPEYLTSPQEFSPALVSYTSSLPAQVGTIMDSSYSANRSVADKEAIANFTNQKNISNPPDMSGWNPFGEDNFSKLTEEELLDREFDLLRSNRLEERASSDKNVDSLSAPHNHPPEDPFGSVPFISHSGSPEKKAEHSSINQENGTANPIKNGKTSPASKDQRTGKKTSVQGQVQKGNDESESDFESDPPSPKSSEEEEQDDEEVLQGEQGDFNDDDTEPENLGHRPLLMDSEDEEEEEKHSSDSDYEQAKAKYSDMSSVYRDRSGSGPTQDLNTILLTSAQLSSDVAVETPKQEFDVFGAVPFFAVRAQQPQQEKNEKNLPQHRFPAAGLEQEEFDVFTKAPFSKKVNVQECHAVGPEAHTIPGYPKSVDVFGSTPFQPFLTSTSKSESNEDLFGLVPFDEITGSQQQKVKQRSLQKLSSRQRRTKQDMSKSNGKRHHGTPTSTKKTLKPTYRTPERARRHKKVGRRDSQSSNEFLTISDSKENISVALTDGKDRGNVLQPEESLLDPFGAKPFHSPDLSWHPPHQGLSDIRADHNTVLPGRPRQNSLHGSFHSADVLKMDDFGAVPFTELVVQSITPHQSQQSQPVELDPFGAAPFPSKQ
# T10 sequence (Q9Y243 whole entry, the tested form may be a part): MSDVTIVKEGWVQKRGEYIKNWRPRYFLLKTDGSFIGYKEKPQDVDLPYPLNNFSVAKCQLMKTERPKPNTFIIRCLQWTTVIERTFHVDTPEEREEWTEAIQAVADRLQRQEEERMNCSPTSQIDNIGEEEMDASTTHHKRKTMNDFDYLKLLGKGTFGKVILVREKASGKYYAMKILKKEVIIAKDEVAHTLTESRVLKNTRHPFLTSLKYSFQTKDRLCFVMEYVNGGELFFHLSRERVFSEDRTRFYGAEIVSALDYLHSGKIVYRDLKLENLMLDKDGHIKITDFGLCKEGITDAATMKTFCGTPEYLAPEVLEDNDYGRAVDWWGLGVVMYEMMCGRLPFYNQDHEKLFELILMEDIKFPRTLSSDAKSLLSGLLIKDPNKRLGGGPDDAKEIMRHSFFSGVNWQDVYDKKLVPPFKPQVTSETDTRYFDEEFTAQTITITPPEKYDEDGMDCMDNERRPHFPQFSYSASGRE
# T5 sequence (Q2M2I8 whole entry, the tested form may be a part): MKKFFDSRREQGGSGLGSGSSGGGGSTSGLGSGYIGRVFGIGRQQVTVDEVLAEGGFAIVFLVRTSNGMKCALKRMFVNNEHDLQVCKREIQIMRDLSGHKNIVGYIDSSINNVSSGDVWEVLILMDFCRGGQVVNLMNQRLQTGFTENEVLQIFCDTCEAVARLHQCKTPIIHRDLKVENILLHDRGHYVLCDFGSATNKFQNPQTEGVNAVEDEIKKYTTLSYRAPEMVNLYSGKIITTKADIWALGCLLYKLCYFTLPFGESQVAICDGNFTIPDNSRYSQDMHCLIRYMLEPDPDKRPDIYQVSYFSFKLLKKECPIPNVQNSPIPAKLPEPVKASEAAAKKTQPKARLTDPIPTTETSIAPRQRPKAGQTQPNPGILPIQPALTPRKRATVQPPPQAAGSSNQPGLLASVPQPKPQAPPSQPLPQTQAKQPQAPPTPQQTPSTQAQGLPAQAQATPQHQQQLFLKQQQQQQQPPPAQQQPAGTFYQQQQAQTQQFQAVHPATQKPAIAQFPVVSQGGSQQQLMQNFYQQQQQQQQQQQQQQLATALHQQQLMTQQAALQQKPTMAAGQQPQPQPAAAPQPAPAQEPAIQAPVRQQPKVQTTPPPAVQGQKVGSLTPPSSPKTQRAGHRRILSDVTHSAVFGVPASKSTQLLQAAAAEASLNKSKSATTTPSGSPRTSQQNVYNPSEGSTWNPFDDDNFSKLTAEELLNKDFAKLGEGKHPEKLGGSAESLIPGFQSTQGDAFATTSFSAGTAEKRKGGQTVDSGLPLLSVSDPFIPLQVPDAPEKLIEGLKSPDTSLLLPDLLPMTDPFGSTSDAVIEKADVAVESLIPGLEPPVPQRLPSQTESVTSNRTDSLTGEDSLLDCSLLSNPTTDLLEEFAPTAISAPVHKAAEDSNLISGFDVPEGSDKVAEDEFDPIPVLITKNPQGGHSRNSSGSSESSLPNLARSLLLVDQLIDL
# T4 sequence (Q00536 whole entry, the tested form may be a part): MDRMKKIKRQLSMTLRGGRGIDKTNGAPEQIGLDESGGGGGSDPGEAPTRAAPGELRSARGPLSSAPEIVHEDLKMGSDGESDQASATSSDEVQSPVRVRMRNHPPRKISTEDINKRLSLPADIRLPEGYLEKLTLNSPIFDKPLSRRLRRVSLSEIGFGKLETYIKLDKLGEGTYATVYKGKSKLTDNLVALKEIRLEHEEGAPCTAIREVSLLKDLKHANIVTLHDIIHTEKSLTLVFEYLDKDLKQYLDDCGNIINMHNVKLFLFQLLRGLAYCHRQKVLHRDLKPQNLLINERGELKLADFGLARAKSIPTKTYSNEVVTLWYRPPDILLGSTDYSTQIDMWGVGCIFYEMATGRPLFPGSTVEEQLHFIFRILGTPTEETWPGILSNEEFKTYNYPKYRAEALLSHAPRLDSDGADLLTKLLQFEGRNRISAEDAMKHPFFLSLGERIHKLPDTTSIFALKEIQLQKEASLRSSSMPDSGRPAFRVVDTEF
# T2 sequence (Q96NX5 whole entry, the tested form may be a part): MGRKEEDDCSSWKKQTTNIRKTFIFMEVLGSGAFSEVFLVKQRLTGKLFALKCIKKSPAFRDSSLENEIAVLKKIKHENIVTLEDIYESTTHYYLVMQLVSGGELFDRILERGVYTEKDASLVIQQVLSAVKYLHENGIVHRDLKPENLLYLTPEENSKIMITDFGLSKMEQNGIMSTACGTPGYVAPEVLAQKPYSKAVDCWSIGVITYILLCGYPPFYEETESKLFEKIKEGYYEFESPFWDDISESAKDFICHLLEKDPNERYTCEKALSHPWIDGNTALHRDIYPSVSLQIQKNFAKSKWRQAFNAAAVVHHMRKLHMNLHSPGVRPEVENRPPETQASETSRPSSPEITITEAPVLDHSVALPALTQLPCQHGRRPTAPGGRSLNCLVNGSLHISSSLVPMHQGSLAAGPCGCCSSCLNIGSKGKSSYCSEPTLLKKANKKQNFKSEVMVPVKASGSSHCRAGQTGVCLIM
dTm [1],dTm [2],dTm [3],"dTm [4, 11]",dTm [5],dTm [6],dTm [7],dTm [8],dTm [9],dTm [10],SMILES,dTm [4]
-0.57 K,1.64 K,0.18 K,4.13 K,2.93 K,7.18 K,1.97 K,-0.45 K,1.86 K,0.68 K,O=C(Nc1cccc(-c2c[nH]c3ncnc(N4CCOCC4)c23)c1)C1(C(=O)Nc2ccc(F)cc2F)CC1 [Compound 23],
-1.17 K,2.80 K,0.26 K,8.82 K,5.13 K,8.74 K,5.67 K,1.05 K,3.44 K,0.62 K,Cc1cc(NC(=O)C2(C(=O)Nc3cccc(-c4c[nH]c5ncnc(N6CCOCC6)c45)c3)CC2)ccc1F [Compound 20],
-0.66 K,0.05 K,-0.70 K,5.50 K,0.59 K,1.28 K,5.56 K,-1.15 K,1.56 K,-0.49 K,CC(=O)N1CCN(c2nc(Cl)nc3[nH]cc(-c4cccc(NC(=O)Nc5cc(C(C)(C)C)nn5-c5ccc(C)cc5)c4)c23)CC1 [Compound 31],
1.12 K,3.07 K,0.87 K,1.12 K,0.52 K,5.63 K,0.62 K,0.0071 K,2.48 K,-0.13 K,Cc1cc(NC(=O)C2(C(=O)Nc3ccc(F)cc3)CC2)cc(-c2c[nH]c3ncnc(N4CCOCC4)c23)c1 [Compound 6],
-0.21 K,1.89 K,-0.42 K,5.02 K,3.79 K,7.72 K,3.09 K,0.86 K,1.91 K,0.16 K,O=C(Nc1ccccc1)C1(C(=O)Nc2cccc(-c3c[nH]c4ncnc(N5CCOCC5)c34)c2)CC1 [Compound 12],
-0.17 K,5.35 K,2.17 K,4.12 K,3.23 K,8.80 K,4.06 K,0.28 K,2.70 K,-0.15 K,O=C(Nc1cccc(-c2c[nH]c3ncnc(N4CCOCC4)c23)c1)C1(C(=O)Nc2ccc(F)c(Br)c2)CC1 [Compound 19],
-0.04 K,-0.26 K,-1.99 K,3.37 K,0.53 K,1.64 K,3.90 K,-3.24 K,0.15 K,-0.99 K,Cc1ccc(-n2nc(C(C)(C)C)cc2NC(=O)Nc2cccc(-c3c[nH]c4nc(Cl)nc(N5CCOCC5)c34)c2)cc1 [Compound 30],
-2.53 K,6.01 K,0.57 K,15.55 K,6.38 K,6.24 K,8.21 K,0.98 K,9.59 K,0.49 K,CC(C)(C)c1cc(NC(=O)Nc2cccc(-c3c[nH]c4ncnc(N5CCOCC5)c34)c2)n(-c2ccc3ncccc3c2)n1 [Compound 28],
0.77 K,0.32 K,-1.14 K,0.61 K,4.61 K,8.11 K,0.08 K,0.32 K,-0.45 K,-0.31 K,CCNc1nc(Nc2cc(F)c(C(=O)N3CCOCC3)cc2OC)ncc1C(F)(F)F [GNE-7915],

SMILES,dTm [1],dTm [2],dTm [3],"dTm [4, 11]",dTm [5],dTm [6],dTm [7],dTm [8],dTm [9],dTm [10],dTm [4]
"Cc1ccc(C(=O)Nc2ccc(CN3CCN(C)CC3)c(C(F)(F)F)c2)cc1C#Cc1cnc2cccnn12 [Ponatinib, reference compound]",,1.16 K,,,,,,,,,
Cn1cc(-c2c[nH]c3ncnc(N4CCOCC4)c23)cc1C#N [PFE-360],1.66 K,-0.81 K,-1.30 K,0.35 K,8.34 K,14.15 K,-0.24 K,0.56 K,-0.69 K,-0.26 K,
"COc1cc2c(Oc3ccc(NC(=O)C4(C(=O)Nc5ccc(F)cc5)CC4)cc3F)ccnc2cc1OCCCN1CCOCC1 [Foretinib, reference compound]",-0.67 K,3.09 K,0.26 K,,0.82 K,1.65 K,1.22 K,0.60 K,11.59 K,-0.34 K,4.52 K
"Cc1ccc(C(=O)Nc2ccc(CN3CCN(C)CC3)c(C(F)(F)F)c2)cc1C#Cc1cnc2[nH]ncc2c1 [GZD-824, reference compound]",3.13 K,0.14 K,-0.65 K,3.06 K,5.77 K,4.51 K,4.34 K,0.29 K,14.58 K,-0.88 K,
CN[C@@H]1C[C@H]2O[C@@](C)([C@@H]1OC)n1c3ccccc3c3c4c(c5c6ccccc6n2c5c31)C(=O)NC4 [Staurosporine],,,,,12.42 K,18.68 K,,7.02 K,,,
"CNC(=O)c1cc(Oc2ccc(NC(=O)Nc3cc(C(C)(C)C)nn3-c3ccc4ncccc4c3)c(F)c2)ccn1 [Rebastinib, reference compound]",-0.79 K,,1.88 K,13.62 K,0.20 K,0.72 K,5.33 K,0.59 K,10.65 K,-0.41 K,
